Laboratory results as given in patent US11103497B2, “Treatment of imatinib resistant leukemia” (Wyeth LLC, priority 2007, dated 2021).
Read-outs that look alike come from different tables or passages of the source.

Experiments:
[1] = test system: BcrAbl
From the text: Bone marrow morphology is used to determine the blast and immature myeloid cell counts in order to define disease phases.
(§1) Standard cytogenetics are used to determine the presence of the Philadelphia chromosome and its percent presence in marrow. Twenty or more metaphases should be counted for this determination. FISH (Fluorescent in situ hybridization) analysis may be used to confirm presence of BcrAbl fusion product.
(§2) Cytogenetic response to treatment. As used herein, a “cytogenetic response to treatment” indicates a relative disappearance of the Philadelphia chromosome in treated subjects as determined by a percentage of Philadelphia chromosome positive cells present. The response can be minimal, minor, partial or complete. […] These figures for % positive are based on analysis of 20 metaphases (per subject?). A fluorescence in situ hybridization (FISH)-based assay can be used to qualify response if insufficient metaphases are available.
(§3) Hematologic Responses to treatment.
The baseline bcr/abl gene was sequenced and point mutations were recorded.

[2] = test system: BcrAbl; assay type: in vivo, human
From the text: as §1, §2, §3

[3] = mutation Y253{H, F}, follow on data

COc1cc(Nc2c(C#N)cnc3cc(OCCCN4CCN(C)CC4)c(OC)cc23)c(Cl)cc1Cl [SKI-606, 4-[(2,4-Dichloro-5-methoxy-phenyl)amino]-6-methoxy-7-[3-(4-methyl-1-piperazinyl)propoxy]-3-quinolinecarbonitrile]
cytogenetic responders per subjects assessed as per TABLE 1 ([1]; mutation I432T): 0 out of 1
heme responders per subjects assessed as per TABLE 1 ([1]; mutation I432T): 1 out of 1
heme responders per subjects assessed as per TABLE 1 ([1]; mutation K263E): 1 out of 1
cytogenetic responders per subjects assessed as per TABLE 1 ([1]; mutation L273M): 1 out of 1
heme responders per subjects assessed as per TABLE 1 ([1]; mutation L273M): 1 out of 1
cytogenetic responders per subjects assessed as per TABLE 1 ([1]; mutation M244V): 1 out of 1
heme responders per subjects assessed as per TABLE 1 ([1]; mutation M244V): 1 out of 1
cytogenetic responders per subjects assessed as per TABLE 1 ([1]; mutation T315I): 1 out of 1
heme responders per subjects assessed as per TABLE 1 ([1]; mutation T315I): 1 out of 2
cytogenetic responders per subjects assessed as per TABLE 1 ([1]; mutation Y253{H, F}): 1 out of 2
heme responders per subjects assessed as per TABLE 1 ([1]; mutation Y253{H, F}): 2 out of 2
cytogenetic or hematologic responses ([1]; patients harboring at least one of nineteen unique point mutations of the bcr/abl gene, 400-600 mg per day): resulted in cytogenetic or hematologic responses
response to treatment ([1]; some imatinib resistant patients not having one of the known resistance-associated mutations): responded favorably
cytogenetic responders per subjects assessed ([2]; mutation E255K, follow on data): 2 out of 2
heme responders per subjects assessed ([2]; mutation E255K, follow on data): 2 out of 3
heme responders per subjects assessed ([2]; mutation E255V): 1 out of 2
cytogenetic responders per subjects assessed ([2]; mutation E286G): 1 out of 1
heme responders per subjects assessed ([2]; mutation E286G): 1 out of 1
cytogenetic responders per subjects assessed ([2]; mutation E355G): 0 out of 1
heme responders per subjects assessed ([2]; mutation E355G): 1 out of 1
cytogenetic responders per subjects assessed ([2]; mutation E453K): 1 out of 1
heme responders per subjects assessed ([2]; mutation E453K): 1 out of 1
cytogenetic responders per subjects assessed ([2]; mutation F317L, follow on data): 1 out of 6
heme responders per subjects assessed ([2]; mutation F317L, follow on data): 7 out of 8
cytogenetic responders per subjects assessed ([2]; mutation F359I): 1 out of 1
heme responders per subjects assessed ([2]; mutation F359I): 1 out of 1
cytogenetic responders per subjects assessed ([2]; mutation F359V, follow on data): 3 out of 4
heme responders per subjects assessed ([2]; mutation F359V, follow on data): 5 out of 5
cytogenetic responders per subjects assessed ([2]; mutation F486S, follow on data): 1 out of 2
heme responders per subjects assessed ([2]; mutation F486S, follow on data): 1 out of 2
cytogenetic responders per subjects assessed ([2]; mutation G250E, follow on data): 0 out of 1
heme responders per subjects assessed ([2]; mutation G250E, follow on data): 2 out of 2
cytogenetic responders per subjects assessed ([2]; mutation G321R): 0 out of 1
heme responders per subjects assessed ([2]; mutation G321R): 1 out of 1
cytogenetic responders per subjects assessed ([2]; mutation H396P, follow on data): 1 out of 1
heme responders per subjects assessed ([2]; mutation H396P, follow on data): 1 out of 1
cytogenetic responders per subjects assessed ([2]; mutation H396R): 0 out of 2
heme responders per subjects assessed ([2]; mutation H396R): 1 out of 1
cytogenetic responders per subjects assessed ([2]; mutation I432T, follow on data): 0 out of 1
heme responders per subjects assessed ([2]; mutation I432T, follow on data): 1 out of 1
cytogenetic responders per subjects assessed ([2]; mutation K263E, follow on data): 1 out of 1
heme responders per subjects assessed ([2]; mutation K263E, follow on data): 1 out of 1
cytogenetic responders per subjects assessed ([2]; mutation L248V, follow on data): 1 out of 3
heme responders per subjects assessed ([2]; mutation L248V, follow on data): 2 out of 2
cytogenetic responders per subjects assessed ([2]; mutation L273M, follow on data): 1 out of 1
heme responders per subjects assessed ([2]; mutation L273M, follow on data): 1 out of 1
cytogenetic responders per subjects assessed ([2]; mutation L384P): 0 out of 1
heme responders per subjects assessed ([2]; mutation L384P): 0 out of 1
cytogenetic responders per subjects assessed ([2]; mutation L387V): 0 out of 1
heme responders per subjects assessed ([2]; mutation L387V): 1 out of 1
cytogenetic responders per subjects assessed ([2]; mutation M244V, follow on data): 4 out of 4
heme responders per subjects assessed ([2]; mutation M244V, follow on data): 4 out of 4
cytogenetic responders per subjects assessed ([2]; mutation M351T, follow on data): 4 out of 6
heme responders per subjects assessed ([2]; mutation M351T, follow on data): 5 out of 5
cytogenetic responders per subjects assessed ([2]; mutation N331S, follow on data): 1 out of 1
cytogenetic responders per subjects assessed ([2]; mutation T277A): 1 out of 1
heme responders per subjects assessed ([2]; mutation T277A): 1 out of 1
cytogenetic responders per subjects assessed ([2]; mutation T315I, follow on data): 3 out of 3
heme responders per subjects assessed ([2]; mutation T315I, follow on data): 5 out of 9
cytogenetic responders per subjects assessed ([2]; mutation V299L): 0 out of 1
heme responders per subjects assessed ([2]; mutation V299L): 0 out of 1
cytogenetic responders per subjects assessed ([2]; mutation Y230H): 0 out of 1
heme responders per subjects assessed ([2]; mutation Y230H): 1 out of 1
cytogenetic responders per subjects assessed [2, 3]: 3 out of 3
heme responders per subjects assessed [2, 3]: 3 out of 3
